Results on 1 substance are retold here after patent US20100279941A1, “CD36 MODULATION AND USES THEREOF” (priority 2009, published 2010).

Format in all cases: in vivo
In assay [1] the test system is CD36^+/+ and CD36^−/− mice. Nature of the assay: Myocardial NEFA uptake by μPET with [18F]-FTHA. The following applies: 6 hours reperfusion, in words. The method, then: (§1) Experimental model of IHD: Transient left coronary artery ligation in vivo. Mice were subjected to a transient LCAL surgery as described before, with minor modifications [Tarnayski et al., 2004]. Mice were injected i.p. with buprenorphine (0.05 mg/kg) and placed in an induction chamber with inhalation anesthesia comprised of 3% isoflurane mixed with 100% oxygen. Mice were intubated with a blunt ended 20-gauge catheter into the trachea via the mouth and mechanically ventilated at a tidal volume of 7 ml/kg at 130 respirations/min with a MiniVent™ mouse ventilator (model 845, Harvard Apparatus, Saint-Laurent, QC, Canada). Anesthesia was maintained with 1.5-2% isoflurane and the animals were kept warm using electrical heating pads during the surgical procedure. The chest was opened by a horizontal incision through the skin and muscle layers at the third intercostal space exposing the left side of the heart. […] Visual blanching distal to the coronary occlusion confirmed myocardial ischaemia. Lidocaine (6 mg/kg) was administered i.p. just following occlusion and prior to reperfusion. After 30 minutes, the PE10 tubing was removed allowing reperfusion. The lungs were reinflated and the chest wound closed layer by layer before extubation. At 6 hours following reperfusion, mice were anesthetized (isoflurane), a blood sample withdrawn, and the heart arrested in diastole by an intravenous injection of 1 M KCl (0.5 mL). Hearts were immediately frozen at −80° C. unless otherwise stated.
Imaging experiments. Imaging experiments were performed with the avalanche photodiode-based small animal PET scanner (μPET) [Lecomte et al., 1996]. […]
(§2) Imaging Data Analysis. For [^11C]-acetate images, dynamic series of 25 frames each were sorted out whereas 27 frames were used for ^18FDG and ^18FTHA imaging, and were reconstructed and analyzed using multicompartmental analysis [Menard et al., 2009] or the Patlak method for FTHA [Patlak and Blasberg, 1985]. […]
Plasma and tissue assays. Plasma insulin, triglyceride (TG) and NEFA levels were measured as previously described [Menard et al., 2009]. […]

Assay [2] concerns CD36^+/+ and CD36^−/− mice. Nature of the assay: Myocardial metabolic rate of glucose by μPET with [18F]-FDG. The following applies: 6 hours reperfusion; in words. The method, then: as §1, with “After 30 minutes, the PE10 tubing was removed allowing reperfusion. The lungs were reinflated and the chest wound closed layer by layer before extubation. At 6 hours following reperfusion, mice were anesthetized (isoflurane), a blood sample withdrawn, and the heart arrested in diastole by an intravenous injection of 1 M KCl (0.5 mL). Hearts were immediately frozen at −80° C. unless otherwise stated.” left out
as §2

In assay [3] the test system is CD36^+/+ and CD36^−/− mice. Nature of the assay: Myocardial oxidative metabolism by μPET with [11C]-acetate. The following applies: in words. As for the experimental part:
as §1, with “After 30 minutes, the PE10 tubing was removed allowing reperfusion. The lungs were reinflated and the chest wound closed layer by layer before extubation. At 6 hours following reperfusion, mice were anesthetized (isoflurane), a blood sample withdrawn, and the heart arrested in diastole by an intravenous injection of 1 M KCl (0.5 mL). Hearts were immediately frozen at −80° C. unless otherwise stated.” left out
as §2

Assay [4] deals with circulating blood leukocytes. Nature of the assay: Opsonized zymosan-stimulated luminol-enhanced whole blood chemiluminescence. The following applies: 48 hours reperfusion; CD36^+/+ mice; 10-week pretreatment; p<0.05. As for the experimental part:
as §1, with “The lungs were reinflated and the chest wound closed layer by layer before extubation. At 6 hours following reperfusion, mice were anesthetized (isoflurane), a blood sample withdrawn, and the heart arrested in diastole by an intravenous injection of 1 M KCl (0.5 mL). Hearts were immediately frozen at −80° C. unless otherwise stated.” left out
Whole blood chemiluminescence. […] The chemiluminescence signals were recorded using a computer-assisted luminometer (model 500; Chronolog Corp, Havertown, Pa., USA). Chemiluminescence intensities were measured as the peak amplitude in arbitrary units.

A further assay deals with C57BL/6 mice. Nature of the assay: Blood lactate after transient ischemia. To be noted: 6-hour reperfusion; 2 weeks 289 nmol/kg; P<0.05 compared to vehicle. As for the experimental part:
C57BU6 mice were bred in house. Male mice, aged 23 (±1) weeks, were used for experiments. They were fed standard chow (#5075, Charles Rivers, Saint-Constant, Québec, Canada) and water ad libitum, and housed singly during treatment periods (2 weeks). Daily pharmacological treatments with 300 μg/kg (289 nmol/kg) of EP 80317 or 289 nmol/kg of CP-3(IV), 289 nmol/kg of CP-AP-4 or vehicle (0.9% NaCl) were done by subcutaneous (s.c.) injections.
as §1
Blood lactate. Blood lactate was determined using the Lactate Pro Analyser (FaCT Canada Consulting Ltd, Quesnel, BC, Canada), according to the manufacturer's instructions.

As to “HAIC-2MeDTrp-DLys-Trp-DPhe-Lys-NH2 [EP 80317]”, the “total plasma NEFA uptake (Km)” value in assay [1] (CD36^+/+ mice) is listed as “reduced”. Also, the “mean fractional uptake rate (Ki) of plasma NEFA” value in assay [1] (CD36^+/+ or CD36^−/− mice) is given as “not affected”. In addition, in assay [1] (CD36^−/− mice), the “net fatty acid uptake (Km)” value is given as “not modulated”. For the same substance, in assay [2], the “myocardial metabolic rate of glucose (MMRG)” value is on record as “not modulated”. Moreover, the “myocardial oxidative metabolism (k2)” value in assay [3] (CD36^+/+ mice pre-treated) is listed as “reduced”; in assay [3] (CD36^−/− mice) it was “unaffected”. In assay [4], the “reduction of circulating blood leukocyte priming and/or activation” value was determined as 53%. Also, in the assay on C57BL/6 mice, the “reduction of lactate concentration in blood” value worked out at 34%.
